Numbering of substitutions follows the chain as printed.
Assays:
RET kinase V804M = RET kinase V804M (Homo sapiens, UniProt P07949, V804M); assay: RET Enzyme Assay (CisBio HTRF KinEASE-TK), V804M; assay type: biochemical; conditions: read-out: RET V804M Enz FRET IC50
[1] = biological target: T1, HEK-293 cells expressing a Kif5b-RET fusion protein (Homo sapiens, UniProt P07949); assay: RET Cell Assay (phospho-RET Tyr1062); assay type: cell-based; conditions: HEK-293 Kif5b-RET, 1 hour incubation, phospho-RET normalized to GAPDH; read-out: KIF5B-RET pTYR1062 Cell IC50
T1 construct: KIF5B (N-terminal portion incl. coiled-coil); expressed in transfected cells; host or cells: HEK-293; the other entry of the earlier key: KIF5B (P33176, Kinesin-1 heavy chain)
T1 sequence (P07949 713-1063 limits assumed): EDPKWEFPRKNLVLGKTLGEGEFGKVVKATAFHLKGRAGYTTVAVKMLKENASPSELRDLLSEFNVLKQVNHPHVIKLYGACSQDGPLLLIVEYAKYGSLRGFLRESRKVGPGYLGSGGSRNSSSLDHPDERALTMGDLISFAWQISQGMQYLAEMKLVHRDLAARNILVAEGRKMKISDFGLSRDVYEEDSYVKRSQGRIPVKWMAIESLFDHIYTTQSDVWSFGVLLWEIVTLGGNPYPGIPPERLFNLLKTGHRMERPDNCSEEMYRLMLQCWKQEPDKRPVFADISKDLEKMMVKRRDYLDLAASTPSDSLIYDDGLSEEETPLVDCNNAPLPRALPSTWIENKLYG
Summary of the method: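 Phospho-RET (Tyr1062) to GAPDH ratio read by in-cell fluorescent immunodetection after 1 hour compound exposure in DMEM, 0.5% DMSO. Cells: HEK-293 carrying Kif5b-RET fusion. POC data fit to a 4-parameter logistic curve, IC50 taken at 50 POC.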

[2] = biological target: T2, HEK-293 cells expressing a G810R mutant RET Kif5b-RET fusion protein (Homo sapiens, UniProt P07949, G810R); assay: RET G810R Mutant Cell Assay (phospho-RET Tyr1062); assay type: cell-based; conditions: HEK-293 Kif5b-RET G810R, 1 hour incubation, phospho-RET normalized to GAPDH
T2 construct: KIF5B (N-terminal portion incl. coiled-coil); expressed in transfected cells; host or cells: HEK-293; the other entry of the earlier key: KIF5B (P33176, Kinesin-1 heavy chain)
T2 sequence (P07949 713-1063 G810R limits assumed): T1 sequence (P07949 713-1063 limits assumed) with G98R
Summary of the method: (§1)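 Signals came from in-cell immunostaining of fixed, methanol-permeabilized HEK-293 fusion-expressing cells exposed 1 h to compound in DMEM with 0.5% DMSO.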

[3] = biological target: T3, HEK-293 cells expressing a G810S mutant RET Kif5b-RET fusion protein (Homo sapiens, UniProt P07949, G810S); assay: RET G810S Mutant Cell Assay (phospho-RET Tyr1062); assay type: cell-based; conditions: HEK-293 Kif5b-RET G810S, 1 hour incubation, phospho-RET normalized to GAPDH
T3 construct: KIF5B (N-terminal portion incl. coiled-coil); expressed in transfected cells; host or cells: HEK-293
T3 sequence (P07949 713-1063 G810S limits assumed): T1 sequence (P07949 713-1063 limits assumed) with G98S
Summary of the method: as §1

RET kinase Wild Type = RET kinase Wild Type (Homo sapiens, UniProt P07949); assay: biochemical;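 further: HTRF kinase activity assay on RET enzyme, 1 h reaction at 22 °C, dual-wavelength readout as percent of control, DMSO-only wells as 100%, pre-quenched reactions as 0%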
RET kinase Wild Type, sequence (P07949 29-1114): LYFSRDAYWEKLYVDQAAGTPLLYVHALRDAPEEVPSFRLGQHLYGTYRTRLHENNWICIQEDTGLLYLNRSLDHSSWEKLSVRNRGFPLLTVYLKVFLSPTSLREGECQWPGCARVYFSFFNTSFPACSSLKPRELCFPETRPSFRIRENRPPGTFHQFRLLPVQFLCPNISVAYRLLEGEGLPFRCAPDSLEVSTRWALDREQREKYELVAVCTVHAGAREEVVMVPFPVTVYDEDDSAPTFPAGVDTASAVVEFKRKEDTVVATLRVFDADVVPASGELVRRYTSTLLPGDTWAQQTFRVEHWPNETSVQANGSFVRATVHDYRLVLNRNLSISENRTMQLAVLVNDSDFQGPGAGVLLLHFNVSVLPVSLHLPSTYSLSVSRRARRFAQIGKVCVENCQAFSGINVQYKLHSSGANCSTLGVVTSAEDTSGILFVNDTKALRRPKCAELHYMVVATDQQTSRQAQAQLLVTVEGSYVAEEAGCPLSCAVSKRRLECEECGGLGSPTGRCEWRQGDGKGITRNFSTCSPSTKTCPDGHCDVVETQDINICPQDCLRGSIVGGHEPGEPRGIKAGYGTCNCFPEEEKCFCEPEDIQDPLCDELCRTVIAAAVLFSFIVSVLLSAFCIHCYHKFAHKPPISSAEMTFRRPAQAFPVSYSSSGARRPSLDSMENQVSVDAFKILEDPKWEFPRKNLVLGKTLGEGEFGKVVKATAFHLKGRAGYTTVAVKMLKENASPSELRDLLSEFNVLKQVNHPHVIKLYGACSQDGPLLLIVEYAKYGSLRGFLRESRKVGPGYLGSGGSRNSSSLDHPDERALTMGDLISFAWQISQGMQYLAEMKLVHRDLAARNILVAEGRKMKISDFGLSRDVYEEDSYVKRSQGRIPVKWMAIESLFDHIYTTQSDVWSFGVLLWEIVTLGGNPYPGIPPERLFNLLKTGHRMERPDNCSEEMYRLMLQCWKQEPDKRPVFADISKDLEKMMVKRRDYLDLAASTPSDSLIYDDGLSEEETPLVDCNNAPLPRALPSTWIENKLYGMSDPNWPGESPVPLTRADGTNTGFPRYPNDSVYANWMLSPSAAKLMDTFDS
Description: (§2) The potency of compounds inhibiting several different RET kinase forms (Wild Type, V804M, G810R, & G810S) were determined using CisBio's HTRF® KinEASE™-TK assay technology. […] After a 1 hour incubation at 22° C., the extent of reaction was determined using a PerkinElmer EnVision multimode plate reader via HTRF dual wavelength detection, and the percent of control (POC) was calculated using a ratiometric emission factor. One hundred POC was determined using DMSO only samples (no compound present), and 0 POC was determined using pre-quenched control reactions.

G810R mutant RET kinase = G810R mutant RET kinase (Homo sapiens, UniProt P07949, G810R); assay: biochemical;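 further: HTRF KinEASE-TK enzymatic assay with 1 nM recombinant RET G810R, 1 h at 22 °C, dual-wavelength ratiometric readout, 100% control without compound, 0% from pre-quenched reactions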
G810R mutant RET kinase, sequence (P07949 29-1114 G810R): as the sequence (P07949 29-1114) above, with G782R counted along it
Description: as §2
(§3) The potency of a compound inhibiting G810R or G810S mutant RET kinase was determined using CisBio's HTRF® KinEASE™-TK assay technology. The assays contained G810R or G810S mutant RET produced at Array Biopharma, Inc. (1 nM enzyme). […] After a 1-h incubation at 22° C., the extent of reaction was determined using a PerkinElmer EnVision multimode plate reader via HTRF dual wavelength detection, and the percent of control (POC) was calculated using a ratiometric emission factor. One hundred POC was determined using no test compounds, and 0 POC was determined using pre-quenched control reactions.

G810S mutant RET kinase = G810S mutant RET kinase (Homo sapiens, UniProt P07949, G810S); assay: biochemical;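 further: HTRF KinEASE-TK kinase assay with recombinant enzyme, 1 h at 22 °C, dual-wavelength ratiometric read-out, percent of control (DMSO-only = 100, pre-quenched reaction = 0)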
G810S mutant RET kinase, sequence (P07949 29-1114 G810S): as the sequence (P07949 29-1114) above, with G782S counted along it
Description: as §2, §3

RET kinase V804M, sequence (P07949 29-1114 V804M): as the sequence (P07949 29-1114) above, with V776M counted along it

CC(C)n1c2c(c3c(N)ncnc31)-c1noc(C3CC3)c1[C@@H](O)[C@H](C)C2 (relative stereo) [Example 62, (Trans)-11-amino-3-cyclopropyl-7-isopropyl-5-methyl-4,5,6,7-tetrahydroisoxazolo[4″,3″:6′,7′]cyclohepta[1′,2′:4,5]pyrrolo[2,3-d]pyrimidin-4-ol]
IC50 (RET kinase V804M): 138 nM | IC50 [1]: 52 nM | IC50 [2]: 349 nM | IC50 [3]: 192 nM | IC50 (RET kinase Wild Type): 34 nM | IC50 (G810R mutant RET kinase): 96 nM | IC50 (G810S mutant RET kinase): 74 nM

CC(C)n1c2c(c3c(N)ncnc31)-c1noc(C3CC3)c1[C@@H](O)[C@@H](C)C2 (relative stereo) [Example 63, (Cis)-11-amino-3-cyclopropyl-7-isopropyl-5-methyl-4,5,6,7-tetrahydroisoxazolo[4″,3″:6′,7′]cyclohepta[1′,2′:4,5]pyrrolo[2,3-d]pyrimidin-4-ol]
IC50 (RET kinase V804M): 211 nM | IC50 [1]: 72 nM | IC50 [2]: 439 nM | IC50 [3]: 352 nM | IC50 (RET kinase Wild Type): 61 nM | IC50 (G810R mutant RET kinase): 118 nM | IC50 (G810S mutant RET kinase): 108 nM

CC(C)n1c2c(c3c(N)ncnc31)-c1noc(C3CC3)c1[C@@H](O)CC2 (single isomer, unassigned) [Example 54]
IC50 (RET kinase V804M): 41 nM | IC50 [1]: 22 nM | IC50 [2]: 103 nM | IC50 [3]: 92 nM | IC50 (RET kinase Wild Type): 13 nM | IC50 (G810R mutant RET kinase): 70 nM | IC50 (G810S mutant RET kinase): 54 nM

CC(C)n1c2c(c3c(N)ncnc31)-c1noc(C3CC3)c1[C@H](O)CC2 (single isomer, unassigned) [Example 55]
IC50 (RET kinase V804M): 21 nM | IC50 [1]: 10 nM | IC50 [2]: 46 nM | IC50 [3]: 40 nM | IC50 (RET kinase Wild Type): 8 nM | IC50 (G810R mutant RET kinase): 31 nM | IC50 (G810S mutant RET kinase): 29 nM

CO[C@@H]1CCc2c(c3c(N)ncnc3n2C(C)C)-c2noc(C3CC3)c21 (single isomer, unassigned) [Example 58]
IC50 (RET kinase V804M): 66 nM | IC50 [1]: 49 nM | IC50 [2]: 186 nM | IC50 [3]: 181 nM | IC50 (RET kinase Wild Type): 23 nM | IC50 (G810R mutant RET kinase): 64 nM | IC50 (G810S mutant RET kinase): 159 nM

CC(C)n1c2c(c3c(N)ncnc31)-c1noc(C3CC3)c1[C@@H](O)[C@H](C)C2 (single isomer, unassigned) [Example 64]
IC50 (RET kinase V804M): 182 nM | IC50 [1]: 47 nM | IC50 [2]: 119 nM | IC50 [3]: 90 nM | IC50 (RET kinase Wild Type): 39 nM | IC50 (G810R mutant RET kinase): 169 nM | IC50 (G810S mutant RET kinase): 76 nM

CC(C)n1c2c(c3c(N)ncnc31)-c1noc(C3CC3)c1[C@H](O)[C@@H](C)C2 (single isomer, unassigned) [Example 65]
IC50 (RET kinase V804M): 163 nM | IC50 [1]: 45 nM | IC50 [2]: 621 nM | IC50 [3]: 290 nM | IC50 (RET kinase Wild Type): 43 nM | IC50 (G810R mutant RET kinase): 64 nM | IC50 (G810S mutant RET kinase): 133 nM

Nc1ncnc2c1c1c(n2C2CCCC2)CCC(O)c2c-1noc2C1CC1 (single isomer, unassigned) [Example 124]
IC50 (RET kinase V804M): 80 nM | IC50 [1]: 19 nM | IC50 [2]: 44 nM | IC50 [3]: 33 nM | IC50 (RET kinase Wild Type): 24 nM | IC50 (G810R mutant RET kinase): 89 nM | IC50 (G810S mutant RET kinase): 49 nM

Nc1ncnc2c1c1c(n2C2CCCC2)CC[C@@H](O)c2c-1noc2C1CC1 (single isomer, unassigned) [Example 125]
IC50 (RET kinase V804M): 19 nM | IC50 [1]: 7 nM | IC50 [2]: 16 nM | IC50 [3]: 16 nM | IC50 (RET kinase Wild Type): 11 nM | IC50 (G810R mutant RET kinase): 41 nM | IC50 (G810S mutant RET kinase): 19 nM

Nc1ncnc2c1c1c(n2C(CF)CF)CC[C@H](O)c2c-1noc2C1CC1 (single isomer, unassigned) [Example 126]
IC50 (RET kinase V804M): 30 nM | IC50 [1]: 5 nM | IC50 [2]: 29 nM | IC50 [3]: 26 nM | IC50 (RET kinase Wild Type): 6 nM | IC50 (G810R mutant RET kinase): 15 nM | IC50 (G810S mutant RET kinase): 9 nM

Nc1ncnc2c1c1c(n2C(CF)CF)CC[C@@H](O)c2c-1noc2C1CC1 (single isomer, unassigned) [Example 127]
IC50 (RET kinase V804M): 21 nM | IC50 [1]: 9 nM | IC50 [2]: 57 nM | IC50 [3]: 52 nM | IC50 (RET kinase Wild Type): 6 nM | IC50 (G810R mutant RET kinase): 28 nM | IC50 (G810S mutant RET kinase): 23 nM

C[C@H](n1c2c(c3c(N)ncnc31)-c1noc(C3CC3)c1[C@@H](O)CC2)C(F)(F)F (single isomer, unassigned) [Example 146, 2,2,2-trifluoroacetate]
IC50 (RET kinase V804M): 87 nM | IC50 [1]: 63 nM | IC50 [2]: 98 nM | IC50 [3]: 68 nM | IC50 (RET kinase Wild Type): 26 nM | IC50 (G810R mutant RET kinase): 43 nM | IC50 (G810S mutant RET kinase): 116 nM

C[C@@H](n1c2c(c3c(N)ncnc31)-c1noc(C3CC3)c1[C@H](O)CC2)C(F)(F)F (single isomer, unassigned) [Example 147, 2,2,2-trifluoroacetate]
IC50 (RET kinase V804M): 32 nM | IC50 [1]: 21 nM | IC50 [2]: 56 nM | IC50 [3]: 90 nM | IC50 (RET kinase Wild Type): 14 nM | IC50 (G810R mutant RET kinase): 74 nM | IC50 (G810S mutant RET kinase): 94 nM

CC(C)n1c2c(c3c(N)ncnc31)-c1noc(C3CC3)c1C(=O)NC2 [Example 19, 11-amino-3-cyclopropyl-7-isopropyl-6,7-dihydroisoxazolo[4,3-c]pyrimido[5′,4′:4,5]pyrrolo[3,2-e]azepin-4(5H)-one 2,2,2-trifluoroacetate]
IC50 (RET kinase V804M): 202 nM | IC50 [1]: 53 nM | IC50 [2]: 262 nM | IC50 [3]: 184 nM | IC50 (RET kinase Wild Type): 45 nM | IC50 (G810R mutant RET kinase): 103 nM | IC50 (G810S mutant RET kinase): 215 nM

CC(C)n1c2c(c3c(N)ncnc31)-c1noc(C3CC3)c1C(=O)N(C)C2 [Example 20, 11-amino-3-cyclopropyl-7-isopropyl-5-methyl-6,7-dihydroisoxazolo[4,3-c]pyrimido[5′,4′:4,5]pyrrolo[3,2-e]azepin-4(5H)-one]
IC50 (RET kinase V804M): 254 nM | IC50 [1]: 28 nM | IC50 [2]: 160 nM | IC50 [3]: 111 nM | IC50 (RET kinase Wild Type): 53 nM | IC50 (G810R mutant RET kinase): 135 nM | IC50 (G810S mutant RET kinase): 123 nM

CC(C)n1c2c(c3c(N)ncnc31)-c1noc(C3CC3)c1S(=O)(=O)CC2 [Example 23, 11-amino-3-cyclopropyl-7-isopropyl-6,7-dihydro-5H-isoxazolo[4″,3″:2′,3′]thiepino[4′,5′:4,5]pyrrolo[2,3-d]pyrimidine 4,4-dioxide 2,2,2-trifluoroacetate]
IC50 (RET kinase V804M): 189 nM | IC50 [1]: 20 nM | IC50 [2]: 133 nM | IC50 [3]: 107 nM | IC50 (RET kinase Wild Type): 18 nM | IC50 (G810R mutant RET kinase): 63 nM | IC50 (G810S mutant RET kinase): 54 nM

CC(=O)N1Cc2c(noc2C2CC2)-c2c(n(C(C)C)c3ncnc(N)c23)C1 [Example 36, 1-(11-amino-3-cyclopropyl-7-isopropyl-6,7-dihydroisoxazolo[4,3-c]pyrimido[5′,4′:4,5]pyrrolo[3,2-e]azepin-5(4H)-yl)ethan-1-one 2,2,2-trifluoroacetate]
IC50 (RET kinase V804M): 235 nM | IC50 [1]: 53 nM | IC50 [2]: 144 nM | IC50 [3]: 255 nM | IC50 (RET kinase Wild Type): 58 nM | IC50 (G810R mutant RET kinase): 130 nM | IC50 (G810S mutant RET kinase): 217 nM

CC1Cc2c(c3c(N)ncnc3n2C(C)C)-c2noc(C3CC3)c2C1=O (stereo not drawn) [Example 60, 11-amino-3-cyclopropyl-7-isopropyl-5-methyl-6,7-dihydroisoxazolo[4″,3″:6′,7′]cyclohepta[1′,2′:4,5]pyrrolo[2,3-d]pyrimidin-4(5H)-one]
IC50 (RET kinase V804M): 98 nM | IC50 [1]: 29 nM | IC50 [2]: 157 nM | IC50 [3]: 101 nM | IC50 (RET kinase Wild Type): 21 nM | IC50 (G810R mutant RET kinase): 45 nM | IC50 (G810S mutant RET kinase): 40 nM

— patent US11964988B2, “Fused heterocyclic compounds as RET kinase inhibitors” (ARRAY BIOPHARMA INC., priority 2018, dated 2024)
